We go through 25 molecules from patent publication US10654834B2 (Venenum Biodesign, LLC, priority 2016, dated 2020).

Some results are limits rather than exact numbers.

The target in one assay is T1, human TGR5 receptor (Homo sapiens, UniProt Q8TDU6).
T1 construct: host or cells: CHO-K1 (hTGR5-CHO)
T1 sequence (Q8TDU6 1-330): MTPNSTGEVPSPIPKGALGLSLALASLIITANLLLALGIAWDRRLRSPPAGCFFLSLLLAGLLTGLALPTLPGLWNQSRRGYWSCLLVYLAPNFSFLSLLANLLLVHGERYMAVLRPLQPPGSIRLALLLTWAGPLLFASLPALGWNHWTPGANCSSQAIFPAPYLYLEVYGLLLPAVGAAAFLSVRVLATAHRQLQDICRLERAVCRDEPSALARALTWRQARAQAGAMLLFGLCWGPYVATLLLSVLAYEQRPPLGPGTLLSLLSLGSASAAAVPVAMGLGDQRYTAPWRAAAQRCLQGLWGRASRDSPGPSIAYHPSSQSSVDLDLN
The assay is described as follows: Human TGR5 cAMP production assay (hTGR5-CHO cells, DiscoveRx cAMP XS+ kit). Format: cell-based. The settings on record: luminescent cAMP assay, read-out: Human TGR5 Lum. cAMP Activity (EC50). In a few lines:
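EC50 values come from luminescent enzyme-complementation cAMP detection, read after overnight incubation. Beforehand, hTGR5-expressing CHO-K1 cells with IBMX and anti-cAMP antibody were exposed 1 h at room temperature to serially diluted (half-log) compounds.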
A general note: cAMP levels reflect the balance of adenylyl cyclase and phosphodiesterase activity.

For another assay, the target named is T2, mouse TGR5 receptor (Mus musculus, UniProt Q80SS6).
T2 construct: host or cells: HEK293-EBNA (293 c18, ATCC CRL10852)
T2 sequence (Q80SS6 1-329): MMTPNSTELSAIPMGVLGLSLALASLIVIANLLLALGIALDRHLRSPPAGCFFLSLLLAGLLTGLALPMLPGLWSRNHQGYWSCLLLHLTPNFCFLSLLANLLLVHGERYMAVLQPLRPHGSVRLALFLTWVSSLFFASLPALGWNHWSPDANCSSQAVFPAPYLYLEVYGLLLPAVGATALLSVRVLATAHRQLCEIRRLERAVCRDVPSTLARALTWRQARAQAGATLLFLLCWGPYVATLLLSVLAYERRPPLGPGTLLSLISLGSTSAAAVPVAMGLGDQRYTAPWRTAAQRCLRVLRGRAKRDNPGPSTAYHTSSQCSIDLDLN
In words: Mouse TGR5 luminescent cAMP production assay (HEK293-EBNA cells, DiscoveRx cAMP XS+ kit). Format: cell-based. As to conditions: HEK293-EBNA cells overexpressing mouse TGR5, luminescent cAMP assay; read-out: Mouse TGR5 Lum. cAMP Activity (EC50). In a few lines: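 HEK293-EBNA cells stably expressing mouse TGR5, resuspended in serum-free DMEM with 500 μM IBMX, were premixed 20 min with cAMP antibody, then exposed to half-log compound dilutions for 1 h at room temperature. cAMP was read by luminescent enzyme-fragment complementation (cAMP XS+) after overnight incubation; EC50 derived.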

Usually EC50 stands for the concentration needed to bring the measured effect to its halfway point.

Regarding `O=C(NCCc1ccc(C(F)(F)F)cc1)[C@@H]1CCCN(c2cc(NC3CCOCC3)nc(C(F)(F)F)n2)C1` [Compound 326, (R)-1-(6-((tetrahydro-2H-pyran-4-yl)amino)-2-(trifluoromethyl)-pyrimidin-4-yl)-N-(4-(trifluoromethyl)phenethyl)piperidine-3-carboxamide], the values for the concentration for a half-maximal effect (EC50) at human TGR5 receptor and at mouse TGR5 receptor were 100 to 999 nM and below 100 nM, respectively.
The matching figures for `Cc1noc(C)c1-c1cc(N2CCC[C@H]2C(=O)NCCc2ccc(C#N)cc2)nc(C(F)(F)F)n1` [Compound 156, (S)-N-(4-cyanophenethyl)-1-(6-(3,5-dimethylisoxazol-4-yl)-2-(trifluoromethyl)pyrimidin-4-yl)pyrrolidine-2-carboxamide]: 1000 to 30000 nM and 1000 to 30000 nM.
`N#Cc1ccc(CCNC(=O)C2CCN2c2cc(N3CCC(CO)CC3)nc(C(F)(F)F)n2)cc1` (centres unmarked) [Compound 241, N-(4-cyanophenethyl)-1-(6-(4-(hydroxymethyl)piperidin-1-yl)-2-(trifluoromethyl)pyrimidin-4-yl)azetidine-2-carboxamide]: the half-maximal effective concentration (EC50) on human TGR5 receptor and on mouse TGR5 receptor was below 100 nM throughout.
As for `N#Cc1ccc(CCNC(=O)[C@@H]2CCN2c2cc(-c3ccncc3)nc(C(F)(F)F)n2)cc1` [Compound 303], the EC50 at human TGR5 receptor and on mouse TGR5 receptor was 100 to 999 nM throughout.
Turning to `N#Cc1ccc(CCNC(=O)[C@@H]2CCCN2c2cc(NCc3ccncc3)nc(C(F)(F)F)n2)cc1` [Compound 13], the figures for the concentration for a half-maximal effect (EC50) at human TGR5 receptor and on mouse TGR5 receptor were 100 to 999 nM and below 100 nM, respectively.
The matching figures for `O=C(NCCc1ccc(C(F)(F)F)cc1)[C@@H]1CCCN(c2cc(OC3CCOCC3)nc(C(F)(F)F)n2)C1` [Compound 335, (R)-1-(6-((tetrahydro-2H-pyran-4-yl)oxy)-2-(trifluoromethyl)pyrimidin-4-yl)-N-(4-(trifluoromethyl)-phenethyl)piperidine-3-carboxamide]: 100 to 999 nM and 100 to 999 nM.
Regarding `O=C(NCCc1ccc(C(F)(F)F)cc1)[C@@H]1CCCN1c1cc(-c2ccncc2)nc(C(F)(F)F)n1` [Compound 140, (S)-1-(6-(pyridin-4-yl)-2-(trifluoromethyl)pyrimidin-4-yl)-N-(4-(trifluoromethyl)phenethyl)pyrrolidine-2-carboxamide], the concentration for a half-maximal effect (EC50) at human TGR5 receptor and at mouse TGR5 receptor was 100 to 999 nM in each case.
Regarding `N#Cc1ccc(CCNC(=O)[C@@H]2CCCN2c2cc(-c3ccsc3)nc(C(F)(F)F)n2)cc1` [Compound 158, (S)-N-(4-cyanophenethyl)-1-(6-(thiophen-3-yl)-2-(trifluoromethyl)pyrimidin-4-yl)pyrrolidine-2-carboxamide], the EC50 on human TGR5 receptor was 100 to 999 nM; on mouse TGR5 receptor, below 100 nM.
The matching figures for `COc1ccc(Oc2cc(N3CCC[C@H]3C(=O)NCCc3ccc(C#N)cc3)nc(C(F)(F)F)n2)cc1` [Compound 44, (S)-N-(4-cyanophenethyl)-1-(6-(4-methoxyphenoxy)-2-(trifluoromethyl)pyrimidin-4-yl)pyrrolidine-2-carboxamide]: 1000 to 30000 nM and 100 to 999 nM.
The matching figures for `N[C@@H]1CC(C(=O)NCCc2ccc(C(F)(F)F)cc2)N(c2cc(N3CCC(CO)CC3)nc(C(F)(F)F)n2)C1` (stereo partly drawn) [Compound 218, (4R)-4-amino-1-(6-(4-(hydroxymethyl)piperidin-1-yl)-2-(trifluoromethyl)pyrimidin-4-yl)-N-(4-(trifluoromethyl)phenethyl)pyrrolidine-2-carboxamide]: 1000 to 30000 nM and 100 to 999 nM.
With `O=C(NCCc1ccc(C(F)(F)F)cc1)[C@@H]1CCCN1c1cc(N2CCC(CCO)CC2)nc(C(F)(F)F)n1` [Compound 7], the half-maximal effective concentration (EC50) at human TGR5 receptor and at mouse TGR5 receptor was below 100 nM each time.
For `CC(=O)NCCNc1cc(N2CCC[C@@H](C(=O)NCCc3ccc(C(F)(F)F)cc3)C2)nc(C(F)(F)F)n1` [Compound 324, (R)-1-(6-((2-acetamidoethyl)amino)-2-(trifluoromethyl)pyrimidin-4-yl)-N-(4-(trifluoromethyl)phenethyl)piperidine-3-carboxamide], the EC50 lay in the range of 1000 to 30000 nM on human TGR5 receptor and 100 to 999 nM on mouse TGR5 receptor.
The corresponding values for `N#Cc1ccc(CCNC(=O)[C@@H]2CCCN2c2cc(-c3ccc(CN)cc3)nc(C(F)(F)F)n2)cc1` [Compound 185, (S)-1-(6-(4-(aminomethyl)phenyl)-2-(trifluoromethyl)pyrimidin-4-yl)-N-(4-cyanophenethyl)pyrrolidine-2-carboxamide] are 100 to 999 nM and 100 to 999 nM.
The matching figures for `COCC1CCN(c2cc(N3CC[C@H]3C(=O)NCCc3ccc(C#N)cc3)nc(C(F)(F)F)n2)CC1` [Compound 222, (S)-N-(4-cyanophenethyl)-1-(6-(4-(methoxymethyl)piperidin-1-yl)-2-(trifluoromethyl)pyrimidin-4-yl)azetidine-2-carboxamide]: below 100 nM and 100 to 999 nM.
The corresponding values for `CN1CCC(Oc2cc(N3CCC[C@H]3C(=O)NCCc3ccc(C#N)cc3)nc(C(F)(F)F)n2)CC1` [Compound 39, (S)—N-(4-cyanophenethyl)-1-(6-((1-methylpiperidin-4-yl)oxy)-2-(trifluoromethyl)pyrimidin-4-yl)pyrrolidine-2-carboxamide] are 100 to 999 nM and below 100 nM.
For the molecule `Nc1cc(N2CCC[C@@H](C(=O)NCCc3ccc(C(F)(F)F)cc3)C2)nc(C(F)(F)F)n1` [Compound 320, (R)-1-(6-amino-2-(trifluoromethyl)pyrimidin-4-yl)-N-(4-(trifluoromethyl)phenethyl)piperidine-3-carboxamide], the 50% effective concentration (EC50) at human TGR5 receptor and on mouse TGR5 receptor was 100 to 999 nM throughout.
For the molecule `CN(CC1CCN(c2cc(N3CCC[C@H]3C(=O)NCCc3ccc(C#N)cc3)nc(C(F)(F)F)n2)CC1)C(=O)OC(C)(C)C` [Compound 20], the EC50 at human TGR5 receptor and on mouse TGR5 receptor was 1000 to 30000 nM throughout.
On to `N#Cc1ccc(CCNC(=O)[C@@H]2CCCN2c2cc(Oc3ccccc3)nc(C(F)(F)F)n2)cc1` [Compound 43, (S)-N-(4-cyanophenethyl)-1-(6-phenoxy-2-(trifluoromethyl)pyrimidin-4-yl)pyrrolidine-2-carboxamide], for which the EC50 on human TGR5 receptor and at mouse TGR5 receptor was 100 to 999 nM each time.
For the molecule `N#Cc1ccc(CCNC(=O)[C@@H]2CCCN2c2cc(OC3CCNCC3)nc(C(F)(F)F)n2)cc1` [Compound 51, (S)-N-(4-cyanophenethyl)-1-(6-(piperidin-4-yloxy)-2-(trifluoromethyl)pyrimidin-4-yl)pyrrolidine-2-carboxamide], the concentration for a half-maximal effect (EC50) at human TGR5 receptor lay in the range of 1000 to 30000 nM; on mouse TGR5 receptor it was 100 to 999 nM.
The corresponding values for `N#Cc1ccc(CCNC(=O)[C@@H]2CCCN(c3cc(OC4CCOCC4)nc(C(F)(F)F)n3)C2)cc1` [Compound 334] are below 100 nM and below 100 nM.
The corresponding values for `CC(=O)NCC1CCN(c2cc(N3CCC[C@H]3C(=O)NCCc3ccc(C#N)cc3)nc(C(F)(F)F)n2)CC1` [Compound 52, (S)-1-(6-(4-(acetamidomethyl)piperidin-1-yl)-2-(trifluoromethyl)pyrimidin-4-yl)-N-(4-cyanophenethyl)pyrrolidine-2-carboxamide] are 100 to 999 nM and below 100 nM.
The matching figures for `CN(C)c1cc(N2CCC[C@@H](C(=O)NCCc3ccc(C(F)(F)F)cc3)C2)nc(C(F)(F)F)n1` [Compound 322, (R)-1-(6-(dimethylamino)-2-(trifluoromethyl)pyrimidin-4-yl)-N-(4-(trifluoromethyl)phenethyl)piperidine-3-carboxamide]: 100 to 999 nM and 1000 to 30000 nM.
With `N#Cc1ccc(CCNC(=O)[C@@H]2CCCN2c2cc(-c3ccco3)nc(C(F)(F)F)n2)cc1` [Compound 167, (S)-N-(4-cyanophenethyl)-1-(6-(furan-2-yl)-2-(trifluoromethyl)pyrimidin-4-yl)pyrrolidine-2-carboxamide], the half-maximal effective concentration (EC50) lay within 1000 to 30000 nM on human TGR5 receptor and 100 to 999 nM on mouse TGR5 receptor.
With `N#Cc1ccc(CCNC(=O)[C@@H]2CCCN2c2cc(-c3ccccn3)nc(C(F)(F)F)n2)cc1` [Compound 162, (S)-N-(4-cyanophenethyl)-1-(6-(pyridin-2-yl)-2-(trifluoromethyl)pyrimidin-4-yl)pyrrolidine-2-carboxamide], the EC50 at human TGR5 receptor and on mouse TGR5 receptor was 100 to 999 nM throughout.
With `CNc1cc(N2CCC[C@@H](C(=O)NCCc3ccc(C(F)(F)F)cc3)C2)nc(C(F)(F)F)n1` [Compound 321, (R)-1-(6-(methylamino)-2-(trifluoromethyl)pyrimidin-4-yl)-N-(4-(trifluoromethyl)phenethyl)piperidine-3-carboxamide], the 50% effective concentration (EC50) at human TGR5 receptor and on mouse TGR5 receptor was 100 to 999 nM throughout.
